In ChEMBL document CHEMBL1275395, “Endoperoxide carbonyl falcipain 2/3 inhibitor hybrids: toward combination chemotherapy of malaria through a single chemical entity” (J Med Chem, 2010):
*1 amine or outer side, *2 acyl side, *3 side chain or, on linkers, in order; H or OH if unused. Where a SMILES comes first, the peptide text is derived from it. [ ]: non-standard residue; d: D form. The star is where a group is joined. hPhe = N[C@@H](CCc1ccccc1)C(=O)O; Morpholide = C1CN(*)CCO1; Cbz = O=C(OCc1ccccc1)*; CO = O=C([*:1])[*:2]

Assays:
[1] = Inhibition of Plasmodium falciparum recombinant falcipain-3
Plasmodium falciparum = assay: Antimalarial activity against Plasmodium falciparum 3D7 infected in human erythrocytes after 4 hrs; assay type: functional, organism-based; settings: 3D7, 4 h
[2] = Inhibition of Plasmodium falciparum recombinant falcipain-2

SMILES | IC50 [1] | IC50 (Plasmodium falciparum) | IC50 [2]
CC(C)C[C@H](NC(=O)OCc1ccccc1)C(=O)N[C@@H](CCc1ccccc1)[C@H]1OOC2(O1)C1CC3CC(C1)CC2C3 (stereo partly drawn) | 947 nM | 55.5 nM | 425 nM
COC[C@@]1([C@H](CCc2ccccc2)NC(=O)[C@H](CC(C)C)NC(=O)OCc2ccccc2)OOC2(O1)C1CC3CC(C1)CC2C3 (stereo partly drawn) | < 19800 nM | 582 nM | < 11500 nM
COC[C@@]1([C@@H](NC(=O)[C@H](CC(C)C)NC(=O)OCc2ccccc2)c2ccccc2)OOC2(O1)C1CC3CC(C1)CC2C3 (stereo partly drawn) | 44200 nM | 2560 nM | 1200 nM
CCOC[C@@]1([C@H](CCc2ccccc2)NC(=O)[C@H](CC(C)C)NC(=O)OCc2ccccc2)OOC2(O1)C1CC3CC(C1)CC2C3 (stereo partly drawn) | < 24200 nM | 572 nM | < 8670 nM
CCOC[C@@]1([C@@H](NC(=O)[C@H](CC(C)C)NC(=O)OCc2ccccc2)c2ccccc2)OOC2(O1)C1CC3CC(C1)CC2C3 (stereo partly drawn) | > 25000 nM |  | < 8580 nM
CC(C)C[C@@H](C(=O)N[C@@H](CCc1ccccc1)[C@H]1OOC2(O1)C1CC3CC(C1)CC2C3)N1CCOCC1 (stereo partly drawn) | 332 nM | 35.3 nM | 510 nM

Further lines, results first:

IC50 [1] | IC50 (Plasmodium falciparum) | IC50 [2] | SMILES
5600 nM | > 10000 nM | 7150 nM | COCC(=O)[C@H](CCc1ccccc1)NC(=O)[C@H](CC(C)C)NC(=O)OCc1ccccc1
8610 nM | > 10000 nM | 1970 nM | COCC(=O)[C@H](Cc1ccccc1)NC(=O)[C@H](CC(C)C)NC(=O)OCc1ccccc1
21600 nM | > 10000 nM | 1960 nM | CCOCC(=O)[C@H](Cc1ccccc1)NC(=O)[C@H](CC(C)C)NC(=O)OCc1ccccc1
222 nM | 310 nM | 438 nM | CC(C)C[C@H](NC(=O)OCc1ccccc1)C(=O)N[C@@H](CCc1ccccc1)C(=O)COc1ccccc1
853 nM | > 10000 nM | 2050 nM | CCOCC(=O)[C@H](CCc1ccccc1)NC(=O)[C@H](CC(C)C)NC(=O)OCc1ccccc1
199 nM | 27.1 nM | 1.4 nM | CC(C)C[C@H](NC(=O)OCc1ccccc1)C(=O)N[C@H](C=O)CCc1ccccc1 (Cbz-Leu-[hPhe]-aldehyde)
215 nM | 9.3 nM | 16.3 nM | CC(C)C[C@H](NC(=O)N1CCOCC1)C(=O)N[C@H](C=O)CCc1ccccc1 ({Morpholide-CO}-Leu-[hPhe]-aldehyde)
